Assay results published in PubChem BioAssay (NCI).
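These data come from cells grown in 96-well plates and exposed to compound for 48 hours at five concentrations. Abbreviation: GI50, concentration required for 50% inhibition of growth. TGI is the concentration that stops growth completely.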

Columns and labels:
Test in all cases: NCI tumour cell line growth inhibition, 48 h
COLO 205 colon = system: COLO 205 colon
HOP-92 NSCLC = system: HOP-92 NSCLC
SK-MEL-2 melanoma = system: SK-MEL-2 melanoma
KM12 colon = system: KM12 colon
SF-539 CNS = system: SF-539 CNS
MCF7 breast = system: MCF7 breast
SR leukemia = system: SR leukemia
HCC-2998 colon = system: HCC-2998 colon
SK-OV-3 ovarian = system: SK-OV-3 ovarian
ACHN renal = system: ACHN renal
K-562 leukemia = system: K-562 leukemia
HT29 colon = system: HT29 colon
U251 CNS = system: U251 CNS
M14 melanoma = system: M14 melanoma
HCT-15 colon = system: HCT-15 colon
OVCAR-8 ovarian = system: OVCAR-8 ovarian
SF-268 CNS = system: SF-268 CNS
SNB-19 CNS = system: SNB-19 CNS
OVCAR-4 ovarian = system: OVCAR-4 ovarian
DU-145 prostate = system: DU-145 prostate
SK-MEL-5 melanoma = system: SK-MEL-5 melanoma
UO-31 renal = system: UO-31 renal
NCI-H23 lung = system: NCI-H23 lung
RXF 393 renal = system: RXF 393 renal
RPMI-8226 leukemia = system: RPMI-8226 leukemia
HS 578T breast = system: HS 578T breast
HCT-116 colon = system: HCT-116 colon
SN12C renal = system: SN12C renal
HOP-62 NSCLC = system: HOP-62 NSCLC
MDA-MB-231 breast = system: MDA-MB-231 breast
PC-3 prostate = system: PC-3 prostate
SF-295 CNS = system: SF-295 CNS
SNB-75 CNS = system: SNB-75 CNS
A549 NSCLC = system: A549 NSCLC
A498 renal = system: A498 renal
BT-549 breast = system: BT-549 breast
UACC-257 melanoma = system: UACC-257 melanoma
CCRF-CEM leukemia = system: CCRF-CEM leukemia
IGROV1 ovarian = system: IGROV1 ovarian
OVCAR-5 ovarian = system: OVCAR-5 ovarian
NCI/ADR-RES ovarian = system: NCI/ADR-RES ovarian
EKVX NSCLC = system: EKVX NSCLC
NCI-H226 lung = system: NCI-H226 lung
SK-MEL-28 melanoma = system: SK-MEL-28 melanoma
MDA-MB-435 = system: MDA-MB-435
OVCAR-3 ovarian = system: OVCAR-3 ovarian
SW-620 colon = system: SW-620 colon
MOLT-4 leukemia = system: MOLT-4 leukemia
NCI-H522 lung = system: NCI-H522 lung
CAKI-1 renal = system: CAKI-1 renal
TK-10 renal = system: TK-10 renal
T-47D breast = system: T-47D breast
786-0 renal = system: 786-0 renal
UACC-62 melanoma = system: UACC-62 melanoma
MALME-3M melanoma = system: MALME-3M melanoma
LOX IMVI melanoma = system: LOX IMVI melanoma
NCI-H460 lung = system: NCI-H460 lung
HL-60(TB) leukemia = system: HL-60(TB) leukemia

SMILES: Cc1cc2c3c(nc4ccccc42)C(=O)c2ccccc2-c3n1
- TGI (COLO 205 colon): > 100000 nM
- TGI (HOP-92 NSCLC): > 100 µM
- TGI (SK-MEL-2 melanoma): 47.8 µM
- TGI (KM12 colon): 14.5 µM
- TGI (SF-539 CNS): 61.2 µM
- TGI (MCF7 breast): 51.2 µM
- TGI (SR leukemia): 37.2 µM
- TGI (HCC-2998 colon): 53.9 µM
- TGI (SK-OV-3 ovarian): 84 µM
- TGI (ACHN renal): > 100 µM
- TGI (K-562 leukemia): 15.1 µM
- TGI (HT29 colon): 60.2 µM
- TGI (U251 CNS): > 100 µM
- TGI (M14 melanoma): 27.3 µM
- TGI (HCT-15 colon): 16.8 µM
- TGI (OVCAR-8 ovarian): 34.8 µM
- TGI (SF-268 CNS): > 100 µM
- TGI (SNB-19 CNS): > 100 µM
- TGI (OVCAR-4 ovarian): > 100 µM
- TGI (DU-145 prostate): > 100000 nM
- TGI (SK-MEL-5 melanoma): 3.1 µM
- TGI (UO-31 renal): > 100 µM
- TGI (NCI-H23 lung): 15.9 µM
- TGI (RXF 393 renal): > 100000 nM
- TGI (RPMI-8226 leukemia): > 100 µM
- TGI (HS 578T breast): 46.7 µM
- TGI (HCT-116 colon): 75.4 µM
- TGI (SN12C renal): > 100 µM
- TGI (HOP-62 NSCLC): 23.5 µM
- TGI (MDA-MB-231 breast): 78.1 µM
- TGI (PC-3 prostate): 80.9 µM
- TGI (SF-295 CNS): 60.4 µM
- TGI (SNB-75 CNS): 29 µM
- TGI (A549 NSCLC): 44.9 µM
- TGI (A498 renal): 42.3 µM
- TGI (BT-549 breast): 48.4 µM
- TGI (UACC-257 melanoma): > 100 µM
- TGI (CCRF-CEM leukemia): 73.3 µM
- TGI (IGROV1 ovarian): > 100 µM
- TGI (OVCAR-5 ovarian): > 100 µM
- TGI (NCI/ADR-RES ovarian): 38.5 µM
- TGI (EKVX NSCLC): > 100 µM
- TGI (NCI-H226 lung): 67 µM
- TGI (SK-MEL-28 melanoma): 43.3 µM
- TGI (MDA-MB-435): 3.11 µM
- TGI (OVCAR-3 ovarian): 906 nM
- TGI (SW-620 colon): 35.9 µM
- TGI (MOLT-4 leukemia): 24.1 µM
- TGI (NCI-H522 lung): 14.4 µM
- TGI (CAKI-1 renal): 60.7 µM
- TGI (TK-10 renal): > 100 µM
- TGI (T-47D breast): > 100 µM
- TGI (786-0 renal): > 100 µM
- TGI (UACC-62 melanoma): 4.06 µM

SMILES: CO[C@H]1/C=C(/C)CCC[C@H](C)[C@H](O)[C@@H](C)C(=O)C(C)(C)[C@@H](O)CC(=O)O[C@@H]1/C(C)=C/c1csc(C)n1
- GI50 (COLO 205 colon): 15.9 nM
- TGI (COLO 205 colon): 75.5 nM
- GI50 (HOP-92 NSCLC): 38 nM
- TGI (HOP-92 NSCLC): > 100 µM
- GI50 (MALME-3M melanoma): 17 nM
- TGI (MALME-3M melanoma): > 100 µM
- GI50 (SK-MEL-2 melanoma): 18.6 nM
- GI50 (KM12 colon): < 12.9 nM
- TGI (KM12 colon): > 100 µM
- GI50 (MCF7 breast): < 10 nM
- TGI (MCF7 breast): > 100 µM
- GI50 (SR leukemia): 15.1 nM
- TGI (SR leukemia): > 58.2 µM
- GI50 (HCC-2998 colon): 20.3 nM
- TGI (HCC-2998 colon): 0.259 µM
- GI50 (SK-OV-3 ovarian): 27.2 nM
- TGI (SK-OV-3 ovarian): > 77.2 µM
- GI50 (ACHN renal): 55.5 nM
- TGI (ACHN renal): > 100 µM
- GI50 (K-562 leukemia): < 17.3 nM
- TGI (K-562 leukemia): > 100 µM
- GI50 (HT29 colon): < 10 nM
- TGI (HT29 colon): 0.525 µM
- GI50 (U251 CNS): 14.3 nM
- TGI (U251 CNS): > 100 µM
- GI50 (M14 melanoma): 21.8 nM
- TGI (M14 melanoma): > 100 µM
- GI50 (LOX IMVI melanoma): 16.2 nM
- TGI (LOX IMVI melanoma): > 100 µM
- GI50 (HCT-15 colon): < 12.8 nM
- TGI (HCT-15 colon): > 100 µM
- GI50 (NCI-H460 lung): < 10 nM
- TGI (NCI-H460 lung): > 100 µM
- GI50 (OVCAR-8 ovarian): 27.7 nM
- TGI (OVCAR-8 ovarian): > 100 µM
- GI50 (SF-268 CNS): 34.6 nM
- TGI (SF-268 CNS): > 100 µM
- GI50 (SNB-19 CNS): 48.6 nM
- TGI (SNB-19 CNS): > 100 µM
- GI50 (OVCAR-4 ovarian): 71 nM
- TGI (OVCAR-4 ovarian): > 100 µM
- GI50 (DU-145 prostate): 25.9 nM
- TGI (DU-145 prostate): 81.7 nM
- GI50 (SK-MEL-5 melanoma): 18.6 nM
- TGI (SK-MEL-5 melanoma): > 100 µM
- GI50 (UO-31 renal): 33.4 nM
- TGI (UO-31 renal): > 100 µM
- GI50 (NCI-H23 lung): 34.9 nM
- TGI (NCI-H23 lung): > 100 µM
- GI50 (RXF 393 renal): 18.7 nM
- TGI (RXF 393 renal): 72.5 nM
- GI50 (RPMI-8226 leukemia): 70.5 nM
- TGI (RPMI-8226 leukemia): > 100 µM
- GI50 (HS 578T breast): 23.4 nM
- TGI (HS 578T breast): > 100 µM
- GI50 (HCT-116 colon): < 12.9 nM
- TGI (HCT-116 colon): > 100 µM
- GI50 (SN12C renal): 48.8 nM
- TGI (SN12C renal): > 100 µM
- GI50 (HOP-62 NSCLC): 41.4 nM
- TGI (HOP-62 NSCLC): > 100 µM
- GI50 (MDA-MB-231 breast): 42.8 nM
- TGI (MDA-MB-231 breast): > 100 µM
- GI50 (PC-3 prostate): 36.1 nM
- TGI (PC-3 prostate): > 100 µM
- GI50 (SF-295 CNS): < 16.8 nM
- TGI (SF-295 CNS): 0.279 µM
- GI50 (HL-60(TB) leukemia): < 10 nM
- TGI (HL-60(TB) leukemia): > 100 µM
- GI50 (SNB-75 CNS): < 10 nM
- TGI (SNB-75 CNS): 0.0319 µM
- GI50 (A549 NSCLC): 21.9 nM
- TGI (A549 NSCLC): > 100 µM
- GI50 (A498 renal): 23.4 nM
- TGI (A498 renal): > 100 µM
- GI50 (BT-549 breast): 49.8 nM
- TGI (BT-549 breast): > 100 µM
- GI50 (UACC-257 melanoma): 45.2 nM
- TGI (UACC-257 melanoma): > 100 µM
- GI50 (CCRF-CEM leukemia): 30 nM
- TGI (CCRF-CEM leukemia): > 100 µM
- GI50 (IGROV1 ovarian): 24.1 nM
- TGI (IGROV1 ovarian): > 100 µM
- GI50 (OVCAR-5 ovarian): 43.6 nM
- TGI (OVCAR-5 ovarian): > 100 µM
- GI50 (NCI/ADR-RES ovarian): 25.2 nM
- TGI (NCI/ADR-RES ovarian): 0.128 µM
- GI50 (EKVX NSCLC): 43.2 nM
- TGI (EKVX NSCLC): > 100 µM
- GI50 (NCI-H226 lung): 32.4 nM
- TGI (NCI-H226 lung): > 100 µM
- GI50 (SK-MEL-28 melanoma): 44.5 nM
- TGI (SK-MEL-28 melanoma): > 100 µM
- GI50 (OVCAR-3 ovarian): < 16.1 nM
- TGI (OVCAR-3 ovarian): 111 nM
- GI50 (SW-620 colon): < 14.8 nM
- TGI (SW-620 colon): > 100 µM
- GI50 (MOLT-4 leukemia): 35.9 nM
- TGI (MOLT-4 leukemia): > 100 µM
- GI50 (NCI-H522 lung): < 10 nM
- TGI (NCI-H522 lung): 0.0224 µM
- GI50 (CAKI-1 renal): 23.8 nM
- TGI (CAKI-1 renal): > 100 µM
- GI50 (TK-10 renal): 36.6 nM
- TGI (TK-10 renal): > 100 µM
- GI50 (T-47D breast): 66.8 nM
- TGI (T-47D breast): > 100 µM
- GI50 (UACC-62 melanoma): 28.7 nM
- TGI (UACC-62 melanoma): > 100 µM
